# Data reported in patent publication US9320760B2, “Compositions and methods of use of compounds to increase cancer patient survival time” (BioNumerik Pharmaceuticals, Inc., priority 2008, dated 2016).
# Several values for one entry are separate records, joined by “and”; a condition that tells them apart may be missing. Equal values may be shown once.
# Columns and labels:
# [1] = target: T1, GST (m1-1 isotype of GST) (Homo sapiens, UniProt P09488); experiment: GST assay: conjugation of reduced glutathione to 1-chloro-2,4-dinitrobenzene (CDNB), 340 nm; format: biochemical; settings: for Slope Abs/min: individual assay run, 1 mM GSH, slope 8.9 to 13.1 min, 20° C.; for Slope Mean: mean of three runs (0 mM control 0.0449); for Relative Activity: normalized to reactions with no Tavocept
# T1 construct: purchased
# T1 sequence (P09488 1-218): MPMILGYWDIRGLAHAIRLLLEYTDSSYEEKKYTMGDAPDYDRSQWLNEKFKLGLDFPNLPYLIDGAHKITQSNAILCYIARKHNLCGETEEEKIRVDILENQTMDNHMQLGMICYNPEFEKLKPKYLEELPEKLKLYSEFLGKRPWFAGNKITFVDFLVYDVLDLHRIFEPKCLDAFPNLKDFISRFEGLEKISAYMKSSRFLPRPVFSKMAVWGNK
# Method: An in vitro assay for GST has been developed and reported. See, Meyer, D. J. and Ketterer, B., Purification of soluble human glutathione S-transferases. Methods Enzymol. 252:53-65 (1995). This assay monitors the conjugation of reduced glutathione to 1-chloro-2,4-dinitrobenzene (CDNB), as illustrated in Reaction Scheme II, below.
# Reduced thiol forms a conjugate with CDNB (extinction coefficient=9600 M^−1 cm^−1), which is detected at 340 nm. […] A typical 1 mL assay was set up by mixing 500 μL NaHPO4 buffer (200 mM, pH 6.5), 20 μL GSH (50 mM), 20 μL CDNB (50 mM), and 458 μL sterile water. Reactions were incubated at 20° C. in the cuvette holder of the spectrophotometer for approximately 5 min. prior to initiating the assay with the addition of enzyme (m1-1 isotype of GST; activity >100 U/mg). The enzyme stock purchased from the vendor was diluted 1:100 in 200 mM NaHPO4 buffer (pH 6.5), and 2 μL of the diluted enzyme was added to initiate the reaction. The final amount of enzyme added to the assay was typically 0.002 U. Assays were run at 20° C. in 1 mL quartz cuvettes (Hellma Scientific). Slopes were measured in the linear range of the assay (i.e., typically between 5 to 10 min.). […] Final reaction volumes were fixed at 1 mL by adjusting the amount of water added.
# All UV-visible assays were performed using a Varian Cary 100 spectrophotometer equipped with a thermostatic jacketed multi-cell holder. The default parameters of the Cary Win UV Enzyme Kinetics application (version 2.00) were used; with the exceptions of using both the visible and deuterium lamps, and setting the wavelength to 340 nm, the temperature to 20° C., and the maximal duration of the assay at 30 minutes.
# Raw data was obtained on a Cary 100 spectrophotometer. […] The first phase was a baseline corresponding to the time prior to addition of enzyme (typically 2-5 min. in duration). Assays in the first phase of the reaction contained only substrate, buffer and (in some assays) Tavocept™. The spectrophotometer was put in pause mode while enzyme (GST) was added and mixed into the assay reactions. No absorbance values were collected during the process of enzyme addition. The region of experimental interest was during the linear phase of the enzyme reaction, which immediately followed the addition of enzyme. The linear phase is of experimental interest because it is when the classical model of Michaelis-Menton kinetics holds true. During this phase the substrate concentration is high (>Km for enzyme) and, therefore, the rate of catalysis is independent of the substrate concentration. It was during this time that reaction rates (i.e., slopes of change in absorbance with time) were measured using the Cary 100 software. The duration of the linear phase was between 5-10 minutes, depending upon the specific reaction conditions. Reactions were considered complete when substrate concentration was no longer saturating and became a rate limiting factor of the assay. When the substrate was limiting, the reaction rate deviated from linearity. This end phase of the reaction was typically observed after 10 to 15 minutes. Absorbance and time values during the end phase of the reaction were not used in slope calculations because the reaction was effectively over at this point as the reaction no longer followed the classical Michaelis-Menton model for enzyme kinetics. Completion of the reaction on the Cary software could be detected visually by overlaying a straight line beginning at the addition of enzyme and extending past the end phase of the assay curve. Upon completion of a set of reactions data was stored as an electronic “batch” file. Sigma Plot was used specifically to show the mean of assays run in triplicate with linear regression lines and error bars illustrating standard deviation. Descriptive statistics (mean and standard deviation) were used to describe and summarize the results of the experiments. The results of these experiments are illustrated in FIG. 16. […]
# [2] = system: non-small cell lung carcinoma (NSCLC) cell lines; experiment: cytotoxicity study in combination with chemotherapeutic agents, NSCLC cell lines; format: cell-based, human; settings: Tavocept in combination with cisplatin vs cisplatin only controls
# [3] = target: T2, Thioredoxin Reductase + Thioredoxin (Bos taurus, UniProt O97680); experiment: NADPH oxidation at 340 nm, coupled thioredoxin (TX)/thioredoxin reductase (TXR)/NADPH system; format: biochemical, bovine
# T2 sequence (O97680 1-105): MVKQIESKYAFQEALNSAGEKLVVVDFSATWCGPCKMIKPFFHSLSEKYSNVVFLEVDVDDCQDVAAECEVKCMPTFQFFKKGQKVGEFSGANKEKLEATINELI
# Method: Biochemistry 21:6628-6633 (1982).
# Data was then collected and plotted in Microsoft Excel. Error calculations, and graphical representations were performed in Microsoft Excel and Kaleidograph (ver. 3.5). Nonlinear data was graphically rendered using Kaleidograph. ANOVA and other statistical analyses were performed using SAS (ver. 8.2). Unless otherwise noted, significance level was set at 0.05, and error bars represent actual experimental standard deviation.
# It should be noted that for the purposes of FIG. 17 only, thioredoxin is labeled TXR and thioredoxin reductase is labeled TRR.
# Table 4, below, illustrates that various Formula (I) compounds (i.e., disulfide-containing compounds) of the present invention can serve as alternate substrate inhibitors for the coupled thioredoxin (TX)/thioredoxin reductase (TXR)/NADPH system as measured by the oxidation of NADPH. In Table 4, the Formula (I) compounds were utilized at a concentration of 0.5 mM.
smiles,measurement,setting,value
"O=S(=O)([O-])CCSSCCS(=O)(=O)[O-].[Na+].[Na+] [Tavocept™, disodium 2,2′-dithio-bis-ethane sulfonate]",Slope Abs/min,[1]; Tavocept 1.1 mM,0.0437 Abs/min and 0.0407 Abs/min and 0.0427 Abs/min
same,Slope Mean,[1]; Tavocept 1.1 mM,0.0424 Abs/min
same,Relative Activity,[1]; Tavocept 1.1 mM,94.4%
same,Slope Abs/min,[1]; Tavocept 3.3 mM,0.0295 Abs/min and 0.0242 Abs/min and 0.0284 Abs/min
same,Slope Mean,[1]; Tavocept 3.3 mM,0.0274 Abs/min
same,Relative Activity,[1]; Tavocept 3.3 mM,61%
same,Slope Abs/min,[1]; Tavocept 10 mM,0.0155 Abs/min and 0.0158 Abs/min and 0.0139 Abs/min
same,Slope Mean,[1]; Tavocept 10 mM,0.0151 Abs/min
same,Relative Activity,[1]; Tavocept 10 mM,33.6%
same,increase in GST inhibition,[1]; Tavocept raised from 1.1 mM to 3.3 mM,~6 times
same,cell death,[2],increase in cell death
same,"NADPH Oxidation, Thioredoxin Reductase + Thioredoxin","[3]; Disulfide 0.5 mM, minimum of triplicate assays",13.1 ± 0.2 nmol/min/mL
same,NADPH oxidation by TXR in the presence of TX,"[3]; FIG. 17, increasing Tavocept concentration",concentration-dependent increase
same,oxidation of reduced thioredoxin to oxidized thioredoxin,[3]; result in words,drives the oxidation
